Measured values from patent US20190374563A1, “TREATMENT OF KLEBSIELLA PNEUMONIAE INFECTIONS WITH ANTIBACTERIAL AMINOGLYCOSIDE COMPOUNDS” (Achaogen, Inc., priority 2009, published 2019).
Values after ≈ are worked out from the molar mass of the structure shown. Where two headings read alike, the source gives them in different places. Blank lines part the entries; values can stand above or below the compound they belong to.

Legend:
[1] = system: K. pneumoniae producing KPC (n = 25); assay: MIC by microdilution, clinical isolates; format: cell-based
Procedure: (§1) The in vitro activity of representative antibacterial aminoglycoside compounds against a collection of 102 K. pneumoniae clinical isolates collected from January 2006 to October 2007 at the University of Pittsburgh Medical Center, and three Cleveland institutions including University Hospitals Case Medical Center, the Cleveland Clinic, and the Louis Stokes Department of Veterans Affairs Medical Center was analyzed. The 102 K. pneumoniae isolates were selected based on a multidrug-resistant (MDR) phenotype (i.e., resistance to >3 antibiotic classes). Twenty-five isolates were KPC carbapenemase producing (KPC-Kp), and were part of a previous study where the β-lactamase background and clonality were characterized (see Endimiani, A., A. M. Hujer, F. Perez, C. R. Bethel, K. M. Hujer, J. Kroeger, M. Oethinger, D. L. Paterson, M. D. Adams, M. R. Jacobs, D. J. Diekema, G. S. Hall, S. G. Jenkins, L. B. Rice, F. C. Tenover, and R. A. Bonomo. 2009. Characterization of blaKPC-containing Klebsiella pneumoniae isolates detected in different institutions in the Eastern USA. J Antimicrob Chemother 63:427-37).
(§2) Minimum inhibitory concentrations (MICs) were performed by microdilution method using cation-adjusted Mueller-Hinton broth, according to the Clinical and Laboratory Standards Institute (CLSI) criteria (see CLSI. 2006. Methods for dilution antimicrobial susceptibility tests for bacteria that grow aerobically; approved standard-Seventh edition. Clinical and Laboratory Standard Institute, Wayne, Pa. CLSI document M7-A7). These MIC assays were conducted following the same protocol as set forth in Example 110. […] The following ATCC control strains were used: Escherichia coli ATCC 25922, Pseudomonas aeruginosa ATCC 27853, and K. pneumoniae ATCC 700603.

[2] = system: multidrug-resistant (MDR) K. pneumoniae isolates (n = 102); assay: MIC by microdilution, clinical isolates; format: cell-based; conditions: for MIC50 / MIC90: Klebsiella pneumoniae; for S (%), susceptible isolates: CLSI criteria, tigecycline US FDA criteria
Procedure: as §1, §2

[3] = system: P. aeruginosa ATCC 27853 (APAE001); assay: MIC assay, CLSI broth microdilution; format: cell-based; conditions: Pseudomonas aeruginosa
Method in brief: (§3)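 CLSI M7-A7 broth microdilution in Mueller Hinton Broth using two-fold compound serial dilutions. Inoculum was prepared from the previous day's agar colonies at a final 5×10^5 CFU/mL. Plates were incubated at 35° C for 20 hours in ambient air.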

P. aeruginosa ATCC 27853 = assay: murine septicemia model of infection; format: in vivo; conditions: mice, single SC or IV dose 1 hour after IP challenge, mortality for 7 days; ED50 values are mg/kg
Procedure: (§4) Two models were run on each compound, using E. coli and P. aeruginosa QC bacterial strains. Both studies employed the same design. […] At 1 hour after bacterial challenge, the mice received a single SC or IV dose of vehicle or test substance to assess in vivo anti-infective activity. Mortality was recorded once daily for 7 days after bacterial inoculation.

E. coli ATCC 25922 = assay: murine septicemia model of infection; format: in vivo; conditions: mice, single SC or IV dose 1 hour after IP challenge, mortality for 7 days; ED50 values are mg/kg
Procedure: as §4

[4] = system: E. coli ATCC 25922 (AECO001); assay: MIC assay, CLSI broth microdilution; format: cell-based; conditions: Escherichia coli, ATCC25922, read-out: MIC AECO001
Method in brief: as §3

[5] = ATCC27853, read-out: MIC APAE001

SMILES: CN(C)c1cc(NC(=O)CNC(C)(C)C)c(O)c2c1C[C@H]1C[C@H]3[C@H](N(C)C)C(O)=C(C(N)=O)C(=O)[C@@]3(O)C(O)=C1C2=O [Tigecycline, tigecycline]
S (%), susceptible isolates ([1]; K. pneumoniae producing KPC (n = 25), CLSI criteria, tigecycline US FDA criteria): 96.0% | MIC50 ([1]; Klebsiella pneumoniae): 1 µg/mL (≈ 1.71 µM) | MIC90 ([1]; Klebsiella pneumoniae): 2 µg/mL (≈ 3.41 µM) | MIC50 [2]: 1 µg/mL (≈ 1.71 µM) | MIC90 [2]: 2 µg/mL (≈ 3.41 µM) | S (%), susceptible isolates ([2]; Total MDR K. pneumoniae isolates (n = 102)): 90.2% | S (%), susceptible isolates ([2]; Total MDR K. pneumoniae isolates (n = 102), listed as tigecycline): ~90%

MIC50 ([1]; Klebsiella pneumoniae, K. pneumoniae producing KPC (n = 25), read-out: MIC50): 8 µg/mL (≈ 14.5 µM) | MIC90 ([1]; Klebsiella pneumoniae, K. pneumoniae producing KPC (n = 25), read-out: MIC90): 16 µg/mL (≈ 29 µM) | MIC ([1]; Klebsiella pneumoniae, all KPC-Kp strains, read-out: MICs of all strains): < 32 µg/mL | MIC50 ([2]; Total MDR K. pneumoniae isolates (n = 102), read-out: MIC50): 4 µg/mL (≈ 7.24 µM) | MIC90 ([2]; Total MDR K. pneumoniae isolates (n = 102), read-out: MIC90): 16 µg/mL (≈ 29 µM)
SMILES: NCC[C@H](O)C(=O)N[C@@H]1C[C@H](N)[C@@H](O[C@H]2O[C@H](CN)CC[C@H]2N)[C@H](O)[C@H]1O[C@H]1O[C@H](CO)[C@@H](O)[C@H](N)[C@H]1O [Arbekacin, arbekacin]

SMILES: CN[C@@H]1[C@@H](O)[C@@H](O[C@@H]2[C@@H](O)[C@H](O[C@H]3OC(CNCCCN)=CC[C@H]3N)[C@@H](N)C[C@H]2NC(=O)[C@@H](O)CN)OC[C@]1(C)O [Example 17, 6′-(3-Amino-propyl)-1-(3-amino-2(S)-hydroxy-propionyl)-sisomicin]
MIC ([3]; Table 1, APAE001 is ATCC27853, read-out: MIC APAE001): 1 to 16 µg/mL (≈ 1.69 to 27 µM) | ED50/MIC P. aeruginosa (P. aeruginosa ATCC 27853): 5 | ED50/MIC E. Coli (E. coli ATCC 25922): 1

SMILES: CN[C@@H]1[C@@H](O)[C@@H](O[C@@H]2[C@@H](O)[C@H](O[C@H]3OC(CN)=CC[C@H]3NC3CNC3)[C@@H](N)C[C@H]2NC(=O)[C@@H](O)CCN)OC[C@]1(C)O [Example 96, 2′-(Azetidin-3-yl)-1-(4-amino-2(S)-hydroxy-butyryl)-sisomicin]
ED50/MIC P. aeruginosa (P. aeruginosa ATCC 27853): 3 | ED50/MIC E. Coli (E. coli ATCC 25922): <1

SMILES: CN[C@@H]1[C@@H](O)[C@@H](O[C@@H]2[C@@H](O)[C@H](O[C@H]3OC(CN)=CC[C@H]3NC[C@H]3C[C@H](N)C3)[C@@H](N)C[C@H]2NC(=O)[C@@H](O)CCN)OC[C@]1(C)O [Example 104, 2′-(Methyl-trans-3-amino-cyclobutyl)-1-(4-amino-2(S)-hydroxy-butyryl)-sisomicin]
MIC [4]: < 1 µg/mL | MIC [3, 5]: 1 to 16 µg/mL (≈ 1.58 to 25.3 µM)

SMILES: CN[C@@H]1[C@@H](O)[C@@H](O[C@@H]2[C@@H](O)[C@H](O[C@H]3OC(CNCCCN)=CC[C@H]3N)[C@@H](N)C[C@H]2NC(=O)C2(O)CCNC2)OC[C@]1(C)O (stereo partly drawn) [Example 40]
MIC [4]: 1 to 16 µg/mL (≈ 1.62 to 25.9 µM) | MIC [3, 5]: 1 to 16 µg/mL (≈ 1.62 to 25.9 µM)

SMILES: CN[C@@H]1[C@@H](O)[C@@H](O[C@@H]2[C@@H](O)[C@H](O[C@H]3OC(CNCCO)=CC[C@H]3N)[C@@H](N)C[C@H]2NC(=O)CO)OC[C@]1(C)O [Example 25, 6′-(2-Hydroxy-ethyl)-1-(2-hydroxy-acetyl)-sisomicin]
MIC [4]: 1 to 16 µg/mL (≈ 1.82 to 29.1 µM) | MIC [3, 5]: 1 to 16 µg/mL (≈ 1.82 to 29.1 µM)

SMILES: CN[C@@H]1[C@@H](O)[C@@H](O[C@@H]2[C@@H](O)[C@H](O[C@H]3OC(CNCC4(CN)CC4)=CC[C@H]3N)[C@@H](N)C[C@H]2NC(=O)[C@@H](O)CN)OC[C@]1(C)O [Example 66, 6′-(Methyl-1-aminomethyl-cyclopropyl)-1-(3-amino-2(S)-hydroxy-propionyl)-sisomicin]
MIC [4]: < 1 µg/mL | MIC [3, 5]: 1 to 16 µg/mL (≈ 1.62 to 25.9 µM)

SMILES: CN[C@@H]1[C@@H](O)[C@@H](O[C@@H]2[C@@H](O)[C@H](O[C@H]3OC(CNCC4CC4)=CC[C@H]3N)[C@@H](N)C[C@H]2NC(=O)[C@H](O)CN)OC[C@]1(C)O [Example 7, 6′-Methyl-cyclopropyl-1-(3-amino-2(R)-hydroxy-propionyl)-sisomicin]
MIC [4]: < 1 µg/mL | MIC [3, 5]: 1 to 16 µg/mL (≈ 1.7 to 27.2 µM)
